Reference: US20050176773A1, “Antiproliferative 2-(heteroaryl)-aminothiazole compounds and pharmaceutical compositions, and method for their use” (AGOURON PHARMACEUTICALS, INC., priority 2003, published 2005)

What was measured:
HCT-116 cells = experiment: Inhibition of cell growth, MTT tetrazolium salt assay; type: cell-based; details: Homo sapiens, 144 h, four to six days incubation; for IC50: first value of the cell, read-out: HCT116 IC50; for IC90: second value of the cell, 90% inhibition of growth, read-out: HCT116 IC90
Protocol: Inhibition of Cell Growth: Assessment of Cytotoxicity:
Inhibition of cell growth was measured using the tetrazolium salt assay, which is based on the ability of viable cells to reduce 3-(4,5-dimethylthiazol-2-yl)-2,5-[2H]-diphenyltetrazolium bromide (MTT) to formazan (Mosmann, T. J. Immunol. Methods 1983, 65, 55-63). The water-insoluble purple formazan product was then detected spectrophotometrically. HCT-116 cells were grown in 96-well plates. Cells were plated in the appropriate medium at a volume of 135 μl/well in either McCoy's 5A Medium. Plates were incubated for 4 hours before addition of inhibitor compounds. Different concentrations of inhibitor compounds were added in 0.5% (v/v) dimethylsulfoxide (15 μL/well), and cells were incubated at 37° C. (5% CO2) for four to six days (depending on cell type). At the end of the incubation, MTT was added to a final concentration of 0.2 mg/mL, and cells were incubated for 4 hours more at 37° C. After centrifugation of the plates and removal of medium, the absorbance of the formazan (solubilized in dimethylsulfoxide) was measured at 540 nm. The concentration of inhibitor compound causing 50% (IC50) or 90% (IC90) inhibition of growth was determined from the linear portion of a semi-log plot of inhibitor concentration versus percentage inhibition. All results were compared to control cells treated only with 0.5% (v/v) dimethylsulfoxide.

[1] = molecular target: T1, human CDK4 / truncated (1-264) cyclin D3 complex (Homo sapiens, UniProt P11802); experiment: Inhibition of CDK4/Cyclin D retinoblastoma kinase activity; type: biochemical; details: Rb fragment substrate, enzyme complex 5 nM
T1 construct: made in house; host or cells: insect cells (baculovirus co-infection)
T1 sequence (P11802 whole entry, the tested form may be a part): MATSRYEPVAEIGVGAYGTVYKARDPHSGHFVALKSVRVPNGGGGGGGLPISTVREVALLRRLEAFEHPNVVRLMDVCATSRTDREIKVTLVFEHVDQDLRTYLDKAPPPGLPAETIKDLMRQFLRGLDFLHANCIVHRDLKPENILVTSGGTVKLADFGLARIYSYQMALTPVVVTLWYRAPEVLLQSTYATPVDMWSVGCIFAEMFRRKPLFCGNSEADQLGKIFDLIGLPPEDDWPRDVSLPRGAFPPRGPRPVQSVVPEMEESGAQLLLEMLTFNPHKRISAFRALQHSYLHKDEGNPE
T1 sequence (P30281 1-264 partner limits assumed): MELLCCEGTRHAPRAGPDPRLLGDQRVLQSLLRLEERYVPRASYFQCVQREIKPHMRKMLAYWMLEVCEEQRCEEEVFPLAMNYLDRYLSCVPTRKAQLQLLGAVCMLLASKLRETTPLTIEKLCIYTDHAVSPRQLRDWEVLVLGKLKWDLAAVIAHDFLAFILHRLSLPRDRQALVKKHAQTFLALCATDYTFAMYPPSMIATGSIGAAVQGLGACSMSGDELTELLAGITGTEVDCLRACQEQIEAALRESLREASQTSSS
Protocol: Inhibition of CDK4/Cyclin D Retinoblastoma Kinase Activity:
A complex of human CDK4 and genetically truncated (1-264) cyclin D3 was purified using traditional biochemical chromatographic techniques from insect cells that had been co-infected with the corresponding baculovirus expression vectors (see e.g., Meijer, L.; Kim, S.-H. In Methods Enzymol. 1997, 283, 113-128). The enzyme complex (5 nM) was assayed with 0.3-0.5 μg of purified recombinant retinoblastoma protein fragment (Rb) as a substrate. The engineered Rb fragment (residues 386-928 of the native retinoblastoma protein; 62.3 kDa) contains the majority of the phosphorylation sites found in the native 106-kDa protein, as well as a tag of six histidine residues for ease of purification. Phosphorylated Rb substrate was captured by microfiltration on a nitrocellulose membrane and quantified using a phosphorimager as described above. For measurement of tight-binding inhibitors, the assay duration was extended to 60 minutes, during which the time dependence of product formation was linear and initial rate conditions were met.

[2] = molecular target: T2, CDK2 / proteolyzed cyclin A complex (Homo sapiens, UniProt P24941); experiment: Inhibition of CDK2/Cyclin A retinoblastoma kinase activity; type: biochemical; details: Rb fragment substrate, CDK2 at 10 nM or 19 nM
T2 construct: made in house; host or cells: CDK2: insect cells (baculovirus); cyclin A: E. coli, then limited proteolysis
Excerpt: Inhibition of CDK2/Cyclin A Retinoblastoma Kinase Activity:
CDK2 was purified using published methodology (Rosenblatt, J.; De Bondt, H.; Jancarik, J.; Morgan, D. O.; Kim, S. H. J. Mol. Biol. 1993, 230, 1317-1319) from insect cells that had been infected with a baculovirus expression vector. Cyclin A was purified from E. coli cells expressing full-length recombinant cyclin A, and a truncated cyclin A construct was generated by limited proteolysis and purified as described previously (Jeffrey, P. D.; Russo, A. A.; Polyak, K.; Gibbs, E.; Hurwitz, J.; Massague, J.; Pavletich, N. P. Nature 1995, 376, 313-320.). A complex of CDK2 and proteolyzed cyclin A was prepared and purified by gel filtration. The substrate for this assay was the same Rb substrate fragment used for the CDK4 assays, and the methodology of the CDK2/delta cyclin A and the CDK4/delta cyclin D3 assays was essentially the same, except that CDK2 was present at 10 nM or 19 nM. The duration of the assay was 60 or 75 minutes, during which the time dependence of product formation was linear and initial rate conditions were met.

Row | IC50 (HCT-116 cells) | IC90 (HCT-116 cells) | Ki [1] | Ki [2] | SMILES
1 | 7 nM | 170 nM | 0.77 nM | 7.3 nM | CN1CCC[C@H]1CNC(=O)c1ccc(Nc2nc(N)c(C(=O)c3c(F)cccc3F)s2)nc1 [Example 1A]
2 | 5.8 nM | 20 nM | 2.7 nM | 39 nM | CN(C)C1(CNC(=O)c2ccc(Nc3nc(N)c(C(=O)c4c(F)cccc4F)s3)nc2)CCC1 [Example 1B, 6-[4-Amino-5-(2,6-difluoro-benzoyl)-thiazol-2-ylamino]-N-(1-dimethylaminocyclobutylmethyl)-nicotinamide]
3 | 79 nM | 210 nM | 12 nM | 7.2 nM | Nc1nc(Nc2ccc(C(=O)NCc3ccccn3)cn2)sc1C(=O)c1c(F)cccc1F [Example 1C, 6-[4-Amino-5-(2,6-difluoro-benzoyl)-thiazol-2-ylamino]-N-pyridin-2-ylmethyl-nicotinamide]
4 | 410 nM | > 5000 nM | 6.6 nM | 5.7 nM | Nc1nc(Nc2ccc(C(=O)NCc3cccnc3)cn2)sc1C(=O)c1c(F)cccc1F [Example 1D, 6-[4-Amino-5-(2,6-difluoro-benzoyl)-thiazol-2-ylamino]-N-pyridin-3-ylmethyl-nicotinamide]
5 | 180 nM | 400 nM | 18 nM | 17 nM | Nc1nc(Nc2ccc(C(=O)Nc3ccccc3)cn2)sc1C(=O)c1c(F)cccc1F [Example 1E, 6-[4-Amino-5-(2,6-difluoro-benzoyl)-thiazol-2-ylamino]-N-phenyl-nicotinamide]
6 | 17 nM | 40 nM | 4.3 nM | 18 nM | Nc1nc(Nc2ccc(C(=O)NCCN3CCCCC3)cn2)sc1C(=O)c1c(F)cccc1F [Example 1F, 6-[4-Amino-5-(2,6-difluoro-benzoyl)-thiazol-2-ylamino]-N-(2-piperidin-1-yl-ethyl)-nicotinamide]
7 | 170 nM | 36000 nM | 35 nM | 18 nM | Nc1nc(Nc2ccc(C(=O)Nc3ccccn3)cn2)sc1C(=O)c1c(F)cccc1F [Example 1G, 6-[4-Amino-5-(2,6-difluoro-benzoyl)-thiazol-2-ylamino]-N-pyridin-2-yl-nicotinamide]
8 | 32 nM | 60 nM | 7.1 nM | 43 nM | CCN1CCCC1CNC(=O)c1ccc(Nc2nc(N)c(C(=O)c3c(F)cccc3F)s2)nc1 (centres unmarked) [Example 1H, 6-[4-Amino-5-(2,6-difluoro-benzoyl)-thiazol-2-ylamino]-N-(1-ethyl-pyrrolidin-2-ylmethyl)-nicotinamide]
9 | 2.6 nM | 5.7 nM | 0.61 nM | 4.4 nM | C[C@H](CN(C)C)NC(=O)c1ccc(Nc2nc(N)c(C(=O)c3c(F)cccc3F)s2)nc1 [Example 1I, 6-[4-Amino-5-(2,6-difluoro-benzoyl)-thiazol-2-ylamino]-N-(2-dimethylamino-1R-methyl-ethyl)-nicotinamide]
10 | 17 nM | 50 nM | 2.2 nM | 11 nM | Nc1nc(Nc2ccc(C(=O)NCCN3CCCC3)cn2)sc1C(=O)c1c(F)cccc1F [Example 1J, 6-[4-Amino-5-(2,6-difluoro-benzoyl)-thiazol-2-ylamino]-N-(2-pyrrolidin-1-yl-ethyl)-nicotinamide]
11 | 8.8 nM | 21 nM | 1.4 nM | 9.8 nM | CN(C)CCNC(=O)c1ccc(Nc2nc(N)c(C(=O)c3c(F)cccc3F)s2)nc1 [Example 1K, 6-[4-Amino-5-(2,6-difluoro-benzoyl)-thiazol-2-ylamino]-N-(2-dimethylamino-ethyl)-nicotinamide]
12 | 2.5 nM | 8.5 nM | 1.3 nM | 8.6 nM | CN(C)C(C)(C)CNC(=O)c1ccc(Nc2nc(N)c(C(=O)c3c(F)cccc3F)s2)nc1 [Example 1L]
13 | 70 nM | 250 nM | 2.3 nM | 35 nM | CNC(C)(C)CNC(=O)c1ccc(Nc2nc(N)c(C(=O)c3c(F)cccc3F)s2)nc1 [Example 1M]
14 | 70 nM | 180 nM | 1.1 nM | 32 nM | CN1CCN(c2ccc(Nc3nc(N)c(C(=O)c4c(F)cccc4F)s3)nc2)CC1 [Example 2A, {4-Amino-2-[5-(4-methyl-piperazin-1-yl)-pyridin-2-ylamino]-thiazol-5-yl}-(2,6-difluoro-phenyl)-methanone]
15 | 210 nM | 700 nM | 3.3 nM | 21 nM | CNCCNC(=O)c1ccc(Nc2nc(N)c(C(=O)c3c(F)cccc3F)s2)nc1 [Example 3A]
16 | 230 nM | 650 nM | 37 nM | 320 nM | CN1CCC[C@H]1CNC(=O)c1ccc(Nc2nc(N)c(C(=O)c3c(F)cccc3F)s2)cn1 [Example C1A, 5-[4-Amino-5-(2,6-difluoro-benzoyl)-thiazol-2-ylamino]-pyridine-2-carboxylic acid (1-methyl-pyrrolidin-2S-ylmethyl)-amide, reference compound]
17 | 120 nM | 280 nM | 120 nM | 400 nM | C[C@H](CN(C)C)NC(=O)c1ccc(Nc2nc(N)c(C(=O)c3c(F)cccc3F)s2)cn1 [Example C1B, 5-[4-Amino-5-(2,6-difluoro-benzoyl)-thiazol-2-ylamino]-pyridine-2-carboxylic Acid (2-Dimethylamino-1R-methyl-ethyl)-amide, reference compound]
